According to US20240327406A1, “POTASSIUM CHANNEL MODULATORS” (Autifony Therapeutics Limited, priority 2021, published 2024):
Where two headings read alike, the source gives them in different places.

Experiments:
[1] = Determination of in vivo pharmacokinetic parameters (blood and brain concentrations); conditions: male, rat; for Kp: brain and blood, oral dosing 1 mg/kg, read-out: AUC B/B (brain/blood) ratio; for Kp at 0.5 h: brain and heart blood, intravenous, 0.5 mg/kg, 0.5 h after dose administration, read-out: Brain/Heart Blood conc @0.5 hr
Procedure: Adult male rats (Charles River, Italy) are dosed with test compound orally at 1 mg/kg (5 ml/kg, in 5% v/v DMSO, 0.5% w/v HPMC in water) and intravenously at 0.5 mg/kg (2 ml/kg, in 5% v/v DMSO 40% w/v PEG400 in saline). After oral administration, blood samples are collected under deep Isofluorane anesthesia from the portal vein and heart of each rat (1 rat per time point). After intravenous administration, serial blood samples are collected from the lateral tail vein of each rat. Blood and brain samples are collected at a single timepoint of 0.5 h after dose administration for these animals. In all cases, blood samples are collected into potassium EDTA tubes.
A further group of rats (n=1 per test compound) receive a single intravenous administration of the PgP transport inhibitor, Elacridar (3 mg/kg) shortly before the oral administration of the test compound at 1 mg/kg, as above.
Blood and brain samples can be assayed for test compound concentration using a method based on protein precipitation with acetonitrile followed by HPLC/MS-MS analysis with an optimized analytical method.
The concentrations of test compound in blood (expressed as ng/ml) and brain (expressed as ng/g) at the different time points following either oral or intravenous dosing are analysed using a non-compartmental pharmacokinetic model using WinNonLin Professional version 4.1. The following parameters are derived:
Intravenous dosing: Maximum concentration over time (Cmax), integrated concentration over time (AUC), clearance (Clb), volume of distribution (Vss), half-life (t1/2) and Brain/Heart Blood conc @0.5 hr.
Oral dosing: Cmax, time of maximum concentration (Tmax), AUC, bioavailability (F %), fraction absorbed (Fa %), blood to brain ratio (AUC B/B), and Fold-change in AUC B/B in the presence of Elacridar.

[2] = biological target: T1, human Kv3.1 channels (hKv3.1) (Homo sapiens, UniProt P48547); assay: Measurement of Kv3 channel modulation: Kv3.1 assay (IonWorks Quattro whole-cell electrophysiology); assay type: cell-based; conditions: for Kv3.1 max R %: normalised to maximum effect of reference compound (50 microM); for EC50: rounded to one decimal place, read-out: Kv3.1 pEC50 (converted)
T1 sequence (P48547 1-501 limits assumed): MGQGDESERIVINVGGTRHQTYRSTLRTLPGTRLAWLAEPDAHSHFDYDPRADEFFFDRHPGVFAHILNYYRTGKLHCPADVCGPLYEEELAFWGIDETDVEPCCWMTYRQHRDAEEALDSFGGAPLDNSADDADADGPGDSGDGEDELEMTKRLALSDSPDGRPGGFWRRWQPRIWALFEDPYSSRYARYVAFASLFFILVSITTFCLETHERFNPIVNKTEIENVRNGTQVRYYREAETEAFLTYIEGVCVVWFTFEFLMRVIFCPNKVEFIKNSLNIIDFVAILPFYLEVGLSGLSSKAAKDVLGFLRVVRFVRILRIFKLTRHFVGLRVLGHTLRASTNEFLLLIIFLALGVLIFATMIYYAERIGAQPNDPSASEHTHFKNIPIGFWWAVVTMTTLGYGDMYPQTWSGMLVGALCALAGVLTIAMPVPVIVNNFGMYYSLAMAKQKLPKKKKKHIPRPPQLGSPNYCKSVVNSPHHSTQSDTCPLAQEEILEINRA
Procedure: The ability of the compounds of the invention to modulate the voltage-gated potassium channel subtypes Kv3.4/Kv3.3/Kv3.2/Kv3.1 may be determined using the following assay. Analogous methods may be used to investigate the ability of the compounds of the invention to modulate other channel subtypes.
Human embryonic kidney (HEK)-hKv3.1 cell line is generated by transfecting HEK-293 cells with an expression vector with human Kv3.1 (NM_004976.4). Cells are cultured with MEM supplemented with 10% Heat-Inactivated FBS, 2 mM L-glutamine, 1% Penicillin-Streptomycin, and 0.6 mg/ml of Geneticin (G418). HEK-hKv3.1b cells were amplified in T175 cm2 flask at 37° C. with 5% CO2, using MEM amplification medium, containing the G418 selection antibiotic (0.6 mg/ml). Cells were detached every 3-4 days, using DPBS to wash twice the flask, then TrypLE to dislodge the cells, and re-plated at a density of 2-4×10^6 cells/flask.
The day of the experiment, cells are removed from the incubator and the culture medium removed. Cells are washed with 5 ml of Dulbecco's PBS (DPBS) calcium and magnesium free and detached by the addition of 3 ml Versene (Invitrogen, Italy) followed by a brief incubation at 37° C. for 5 minutes. The flask is tapped to dislodge cells and 10 ml of DPBS containing calcium and magnesium is added to prepare a cell suspension. The cell suspension is then placed into a 15 ml centrifuge tube and centrifuged for 2 min at 1200 rpm. After centrifugation, the supernatant is removed and the cell pellet re-suspended in 4 ml of DPBS containing calcium and magnesium using a 5 ml pipette to break up the pellet. Cell suspension volume is then corrected to give a cell concentration for the assay of approximately 3 million cells per ml.
Experiments are conducted at r.t. using IonWorks Quattro™ planar array electrophysiology technology (Molecular Devices Corp.) with PatchPlate™ PPC. Stimulation protocols and data acquisition are carried out using a microcomputer (Dell Pentium 4). Planar electrode hole resistances (Rp) are determined by applying a 10 mV voltage step across each well. These measurements are performed before cell addition. After cell addition and seal formation, a seal test is performed by applying a voltage step from −80 mV to −70 mV for 160 ms. Following this, amphotericin-B solution is added to the intracellular face of the electrode to achieve intracellular access. Cells are held at −70 mV. Leak subtraction is conducted in all experiments by applying 50 ms hyperpolarizing (10 mV) prepulses to evoke leak currents followed by a 20 ms period at the holding potential before test pulses.
For hKv3.2 and hKv3.1, assays from the holding potential of −70 mV, a first test pulse at −15 mV was applied for 100 ms and after 100 ms at −70 mV a second pulse at +40 mV was applied for 50 ms. Cells were then maintained for 100 ms at −100 mV and another pulse from […] to +40 mV (duration 50 ms) was applied to clamp later the voltage at −40 mV during 200 ms
The intracellular solution contains the following (in mM): K-gluconate 100, KCl 54, MgCl2 3.2, HEPES 5, adjusted to pH 7.3 with KOH. Amphotericin-B solution is prepared as 50 mg/ml stock solution in DMSO and diluted to a final working concentration of 0.1 mg/ml in intracellular solution.
Compounds of use in the invention (or reference compounds such as N-cyclohexyl-N-[(7,8-dimethyl-2-oxo-1,2-dihydro-3-quinolinyl)methyl]-N′-phenylurea) are dissolved in dimethylsulfoxide (DMSO) at a stock concentration of 10 mM. […] Each dilution (1 μL) is transferred to another compound plate and external solution containing 0.05% pluronic acid (66 μL) is added. 3.5 μL from each plate containing a compound of the invention is added and incubated with the cells during the IonWorks Quattro™ experiment. The final assay dilution is 200 and the final compound concentrations are in the range 50 μM to 50 nM.

[3] = Table 2, Example compounds, some compounds with two data sets (n given in cell)

In the case of `CC1(C)COc2cccc(Oc3ncc(-n4c(=O)[nH]c5cccnc54)cn3)c21` [Example 33, 3-[2-[(3,3-dimethyl-2H-benzofuran-4-yl)oxy]pyrimidin-5-yl]-1H-imidazo[4,5-b]pyridin-2-one], the Kp [1] is reported as 0.65, the Kp at 0.5 h [1] is reported as 0.63 and the “Kv3.1 max R %” value ([2]; Table 2, Example compounds) is reported as 194%. For the same compound, the EC50 [2, 3] was 794 nM and the EC50 ([2]; Table 3, Reference Examples and corresponding Examples) was 631 nM.

For `O=c1[nH]c2cccnc2n1-c1cnc(Oc2cccc3c2C2(CC2)CO3)cn1` [Example 8, 3-(5-spiro[2H-benzofuran-3,1′-cyclopropane]-4-yloxypyrazin-2-yl)-1H-imidazo[4,5-b]pyridin-2-one], the Kp [1] was under 0.1, the Kp at 0.5 h [1] was under 0.1 and the “Kv3.1 max R %” value ([2]; Table 2, Example compounds) was 204%. The EC50 [2, 3] was 200 nM.

In the case of `Cc1ncc2[nH]c(=O)n(-c3ccc(Oc4cccc5c4C4(CC4)CO5)nc3)c2n1` [Example 26, 2-methyl-9-(6-spiro[2H-benzofuran-3,1′-cyclopropane]-4-yloxy-3-pyridyl)-7H-purin-8-one], the Kp [1] is reported as under 0.1, the Kp at 0.5 h [1] is reported as under 0.1 and the “Kv3.1 max R %” value ([2]; Table 2, Example compounds) is reported as 135%. The EC50 [2, 3] was 50.1 nM.

For `Cc1ncc2[nH]c(=O)n(-c3ccc(Oc4cccc(OC(F)(F)F)c4)nc3)c2n1` [Example 24, 2-methyl-9-[6-[3-(trifluoromethoxy)phenoxy]-3-pyridyl]-7H-purin-8-one], the Kp [1] was 0.29, the Kp at 0.5 h [1] was 0.33 and the “Kv3.1 max R %” value ([2]; Table 2, Example compounds) was 144%. For the same compound, the EC50 [2, 3] was 1000 nM.

For `O=c1[nH]c2cccnc2n1-c1cnc(Oc2cccc3c2C2(CC2)CO3)nc1` [Example 13, 3-(2-{2H-spiro[1-benzofuran-3,1′-cyclopropane]oxy}pyrimidin-5-yl)-1H,2H,3H-imidazo[4,5-b]pyridin-2-one], the Kp [1] was 0.12, the Kp at 0.5 h [1] was 0.13 and the “Kv3.1 max R %” value ([2]; Table 2, Example compounds) was 194%. It also gave an EC50 [2, 3] of 200 nM.

In the case of `Cc1ncc2[nH]c(=O)n(-c3ccc(Oc4ccc(C)c5c4C4(CC4)CO5)nc3)c2n1` [Example 25, 2-methyl-9-[6-(7-methylspiro[2H-benzofuran-3,1′-cyclopropane]-4-yl)oxy-3-pyridyl]-7H-purin-8-one], the “Kv3.1 max R %” value ([2]; Table 2, Example compounds) is reported as 190% and the EC50 [2, 3] is reported as 316 nM.

In the case of `O=c1[nH]c2cccnc2n1-c1ccc(Oc2cccc3c2C2(CC2)CO3)cn1` [Example 6, 3-(5-spiro[2H-benzofuran-3,1′-cyclopropane]-4-yloxy-2-pyridyl)-1H-imidazo[4,5-b]pyridin-2-one], the “Kv3.1 max R %” value ([2]; Table 2, Example compounds) is reported as 221% and the EC50 [2, 3] is reported as 2000 nM.

For `Cc1ccnc2c1[nH]c(=O)n2-c1ccc(Oc2cccc3c2C2(CC2)CO3)nc1` [Example 5, 7-methyl-3-(6-spiro[2H-benzofuran-3,1′-cyclopropane]-4-yloxy-3-pyridyl)-1H-imidazo[4,5-b]pyridin-2-one], the “Kv3.1 max R %” value ([2]; Table 2, Example compounds) was 132% and the EC50 [2, 3] was 316 nM.
